Measurements published in PubChem BioAssay (NCI).
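96-well plates; 48 h exposure; 5 concentrations. Endpoints by linear interpolation between flanking doses. Not reached: highest tested concentration assigned. GI50: concentration for 50% inhibition of growth. Definition used: TGI = concentration required for complete inhibition of growth.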

What was measured:
Test in all cases: NCI tumour cell line growth inhibition, 48 h
SNB-78 CNS = test system: SNB-78 CNS
DLD-1 colon = test system: DLD-1 colon
LXFL 529 NSCLC = test system: LXFL 529 NSCLC
DMS 114 small cell lung = test system: DMS 114 small cell lung
XF 498 CNS = test system: XF 498 CNS
HOP-18 NSCLC = test system: HOP-18 NSCLC
RXF-631 renal = test system: RXF-631 renal
SN12K1 renal = test system: SN12K1 renal
P388/ADR leukemia = test system: P388/ADR leukemia
P388 leukemia = test system: P388 leukemia

| Structure (SMILES) | TGI (SNB-78 CNS) | TGI (DLD-1 colon) | TGI (LXFL 529 NSCLC) | TGI (DMS 114 small cell lung) | GI50 (DLD-1 colon) | GI50 (LXFL 529 NSCLC) | GI50 (XF 498 CNS) | GI50 (HOP-18 NSCLC) | TGI (HOP-18 NSCLC) | TGI (RXF-631 renal) | GI50 (DMS 114 small cell lung) | TGI (XF 498 CNS) | GI50 (SNB-78 CNS) | TGI (SN12K1 renal) | TGI (P388/ADR leukemia) | TGI (P388 leukemia) |
| --- | --- | --- | --- | --- | --- | --- | --- | --- | --- | --- | --- | --- | --- | --- | --- | --- |
| CC(C)CCS(=O)(=O)OCCCCOS(=O)(=O)CCC(C)C | > 100 µM | > 100 µM | > 100 µM | > 100 µM |  |  |  |  |  |  |  |  |  |  |  |  |
| O=C(NC(=O)c1ccccc1[N+](=O)[O-])Nc1ccc(Oc2ncc(Br)cn2)c(Cl)c1 |  |  |  |  | < 0.0201 µM | < 0.0224 µM | < 0.0251 µM | > 100 µM | > 100 µM | 0.056 µM | 0.00331 µM |  |  |  |  |  |
| CCC(C(=O)O)c1ccc(OC)cc1 (stereo not given) | > 100 µM | > 100 µM | > 100 µM | > 100 µM |  |  |  |  |  | > 100 µM |  | > 100 µM |  |  |  |  |
| CCCCC#C[I+]c1ccccc1 | 60.3 µM | 38.2 µM | 24.6 µM |  |  |  |  |  | 27.6 µM | 35.6 µM |  | 28.6 µM |  |  |  |  |
| O=C(CCN1CCCCC1)C(=Cc1ccccc1)C(=O)CCN1CCCCC1 | > 100 µM | 44.5 µM |  |  |  |  | 5.35 µM | > 100 µM | > 100 µM |  | 38.7 µM | > 100 µM | 3.5 µM | > 100 µM | > 72.4 µM | > 31.6 µM |
| C=C(C)C(=O)OC1C/C(CO)=C\C(O)C/C(C)=C/C2OC(=O)C(=C)C21 (stereo not given) | > 100 µM |  | 32.2 µM | 60.8 µM |  |  |  |  | 83.4 µM | 36.7 µM |  | 29.3 µM |  |  |  |  |
